The text below walks through data of ChEMBL document CHEMBL4689842, “EUbOPEN Chemogenomics Library wave 1” (2021).

Format in all cases: toxicity, cell-based
The subject of one series is HEK-293T. Kind of series: Incucyte cell viability with HEK293T. Particulars: human, 10 µM, compound concentration 10 uM.
The subject of another series is Fibroblast. Kind of series: Incucyte cell viability with human fibroblast. Particulars: 10 µM, compound concentration 10 uM.
The subject of another series is U2OS. Description: Incucyte cell viability with U2OS. To be noted: human, 10 µM, compound concentration 10 uM.
[1] abbreviates: 0 h, replicate number 1, timepoint 0 hours.
Setting [2] is: 6 h, replicate number 1, timepoint 6 hours.
Where [3] appears, read: 6 h, replicate number 2, timepoint 6 hours.
Setting [4] is: 12 h, replicate number 1, timepoint 12 hours.
[5] abbreviates: 12 h, replicate number 2, timepoint 12 hours.
Setting [6] is: 18 h, replicate number 1, timepoint 18 hours.
Setting [7] is: 24 h, replicate number 1, timepoint 24 hours.
[8] abbreviates: 24 h, replicate number 2, timepoint 24 hours.
Where [9] appears, read: 18 h, replicate number 2, timepoint 18 hours.
Where [10] appears, read: 0 h, replicate number 2, timepoint 0 hours.

Molecules are shown by their SMILES.
Note: filed as whole numbers so only -1 and 0 and 1 occur.

As to `CN(C(=O)Cc1ccc(Cl)c(Cl)c1)C(CN1CCCC1)c1cccc(OCC(=O)O)c1.Cl` (stereo not given), the “Growth Rate” value in the series with HEK-293T (setting [1]) was 0; in the series with HEK-293T (setting [2]) it was 1; with HEK-293T (setting [3]), 0; in the series on HEK-293T (setting [4]) it was 1; in the series with HEK-293T (setting [5]) it was 0; with HEK-293T (setting [6]), 1. Also, the “Growth Rate” value with HEK-293T (setting [7]) was 1; in the series with HEK-293T (setting [8]) it was 0; with Fibroblast (setting [1]), 0; with Fibroblast (setting [2]), 0; in the series with Fibroblast (setting [4]), 0; in the series on Fibroblast (setting [5]), 1. For the same compound, the “Growth Rate” value in the series on Fibroblast (setting [6]) is on record as 0; in the series on Fibroblast (setting [7]), 0; in the series on U2OS (setting [1]) it was 0; with U2OS (setting [3]), 1; in the series with U2OS (setting [4]), 0; in the series on U2OS (setting [5]), 1. The “Growth Rate” value in the series on U2OS (setting [6]) came to 0; in the series with U2OS (setting [9]), 1; with U2OS (setting [7]), 1.

In the case of `CC(=O)[C@@]1(O)CC[C@H]2[C@@H]3C[C@H](C)C4=CC(=O)CC[C@]4(C)[C@H]3CC[C@@]21C`, the “Growth Rate” value with HEK-293T (setting [1]) turned out to be 1; in the series on HEK-293T (setting [10]), 0; with HEK-293T (setting [2]), 0; in the series on HEK-293T (setting [4]), 0; in the series with HEK-293T (setting [6]) it was 0; in the series with HEK-293T (setting [7]), 0. Moreover, the “Growth Rate” value in the series on Fibroblast (setting [1]) came out at 1; in the series with Fibroblast (setting [10]) it was 0; with Fibroblast (setting [2]), 0; with Fibroblast (setting [4]), 1; with Fibroblast (setting [6]) it was 1; in the series on Fibroblast (setting [7]) it was 1. For the same compound, the “Growth Rate” value in the series on U2OS (setting [1]), with U2OS (setting [2]), with U2OS (setting [4]), in the series with U2OS (setting [6]) and in the series with U2OS (setting [7]) was 1 each time.

As for `CN(CCOc1ccc(C[C@H](Nc2ccccc2C(=O)c2ccccc2)C(=O)O)cc1)c1ccccn1.O`, the “Growth Rate” value with HEK-293T (setting [1]) was determined as 1; in the series on HEK-293T (setting [10]), 0; in the series on HEK-293T (setting [2]), 0; in the series on HEK-293T (setting [3]), 1; in the series with HEK-293T (setting [4]) it was 1; in the series with HEK-293T (setting [6]), 1. Besides, the “Growth Rate” value is 1 in the series with HEK-293T (setting [7]); 0 in the series on HEK-293T (setting [8]); 0 in the series with Fibroblast (setting [1]); 1 with Fibroblast (setting [2]); 0 in the series with Fibroblast (setting [3]); 0 in the series on Fibroblast (setting [5]). Further, the “Growth Rate” value is listed as 0 in the series on Fibroblast (setting [9]); 1 in the series with Fibroblast (setting [7]); 0 in the series with Fibroblast (setting [8]); 0 with U2OS (setting [1]); 0 in the series with U2OS (setting [3]); 0 in the series on U2OS (setting [4]). For the same compound, the results for the “Growth Rate” value in the series on U2OS (setting [6]), with U2OS (setting [7]) and with U2OS (setting [8]) were 0, 1 and 0, respectively.

`O=C(Nc1cccc2c(=O)cc(-c3nnn[nH]3)oc12)c1ccc(OCCCCc2ccccc2)cc1`: the “Growth Rate” value in the series with HEK-293T (setting [1]) was 1; with HEK-293T (setting [10]) it was 0; with HEK-293T (setting [2]) it was 0; in the series with HEK-293T (setting [3]), 1; with HEK-293T (setting [4]), 0; in the series on HEK-293T (setting [6]), 0. In addition, the “Growth Rate” value is 0 in the series on HEK-293T (setting [7]); 1 in the series on HEK-293T (setting [8]); 0 in the series on Fibroblast (setting [1]); 1 with Fibroblast (setting [10]); 0 in the series on Fibroblast (setting [2]); 0 with Fibroblast (setting [4]). Further, the “Growth Rate” value in the series on Fibroblast (setting [5]) turned out to be 1; in the series on Fibroblast (setting [6]), 0; with Fibroblast (setting [9]), 1; with Fibroblast (setting [7]), 0; in the series on U2OS (setting [1]) it was 1; in the series on U2OS (setting [2]) it was 0. The “Growth Rate” value with U2OS (setting [4]) stood at 0; with U2OS (setting [6]) it was 0; with U2OS (setting [7]), 1; with U2OS (setting [8]), 0.

Consider `Cc1nc(C#Cc2ccnc(Cl)c2)c(C)n1-c1ccc(OC(F)(F)F)cc1`, for which the “Growth Rate” value worked out at 0 in the series on HEK-293T (setting [1]); 0 in the series on HEK-293T (setting [2]); 0 with HEK-293T (setting [4]); 0 in the series with HEK-293T (setting [6]); 0 in the series on HEK-293T (setting [7]); 1 with Fibroblast (setting [1]). Besides, the “Growth Rate” value with Fibroblast (setting [10]) came to 0; in the series on Fibroblast (setting [2]), 1; with Fibroblast (setting [3]) it was 0; in the series with Fibroblast (setting [4]), 0; with Fibroblast (setting [6]), 1; with Fibroblast (setting [9]), 0. Moreover, the “Growth Rate” value in the series with Fibroblast (setting [7]) is 1; in the series with Fibroblast (setting [8]), 0; with U2OS (setting [1]), 0; with U2OS (setting [4]) it was 1; in the series on U2OS (setting [6]), 1; with U2OS (setting [7]), 1.

Turning to `Cc1cc(SCc2sc(-c3ccc(C(F)(F)F)c(F)c3)nc2C)ccc1OCC(=O)O`, the “Growth Rate” value in the series with HEK-293T (setting [1]) is 0; in the series with HEK-293T (setting [2]), 1; in the series on HEK-293T (setting [4]), 1; in the series on HEK-293T (setting [5]), 0; with HEK-293T (setting [6]), 0; in the series on HEK-293T (setting [7]), 0. The “Growth Rate” value was determined as 0 with Fibroblast (setting [1]); 1 in the series on Fibroblast (setting [2]); 1 in the series with Fibroblast (setting [4]); 0 with Fibroblast (setting [5]); 1 in the series with Fibroblast (setting [6]); 1 in the series with Fibroblast (setting [7]). The “Growth Rate” value amounted to 0 with Fibroblast (setting [8]); 0 with U2OS (setting [1]); 1 in the series with U2OS (setting [3]); 1 with U2OS (setting [4]); 1 in the series with U2OS (setting [6]); 1 in the series with U2OS (setting [7]).

In the case of `Cc1cc(C)c(N)c(C#Cc2cccc(F)c2)n1.Cl`, the “Growth Rate” value in the series on HEK-293T (setting [1]) is listed as 1; in the series with HEK-293T (setting [10]), 0; in the series on HEK-293T (setting [2]) it was 0; in the series with HEK-293T (setting [3]) it was 1; in the series on HEK-293T (setting [4]), 0; in the series on HEK-293T (setting [5]), 1. In addition, the “Growth Rate” value was 0 in the series with HEK-293T (setting [6]); 1 in the series on HEK-293T (setting [9]); 0 with HEK-293T (setting [7]); 1 with HEK-293T (setting [8]); 0 in the series with Fibroblast (setting [1]); 0 with Fibroblast (setting [2]). Besides, the “Growth Rate” value in the series on Fibroblast (setting [4]), in the series with Fibroblast (setting [6]), in the series on Fibroblast (setting [7]), in the series on U2OS (setting [2]), with U2OS (setting [4]) and in the series on U2OS (setting [6]) was 0 in each case. Further, the “Growth Rate” value came out at 1 in the series with U2OS (setting [9]), 0 with U2OS (setting [7]) and 1 in the series on U2OS (setting [8]).

Take `O=C(O)CC1CCC2(CC1)CCN(c1cc(OC(F)(F)F)ccc1Cl)CC2`: the “Growth Rate” value is 0 in the series with HEK-293T (setting [1]); 1 with HEK-293T (setting [2]); 0 with HEK-293T (setting [4]); 1 in the series with HEK-293T (setting [5]); 0 in the series on HEK-293T (setting [6]); 1 in the series with HEK-293T (setting [9]). Moreover, the “Growth Rate” value with HEK-293T (setting [7]) was determined as 0; with HEK-293T (setting [8]), 1; in the series on Fibroblast (setting [1]), 0; in the series on Fibroblast (setting [2]), 1; in the series with Fibroblast (setting [6]) it was 1; in the series on Fibroblast (setting [7]), 1. The “Growth Rate” value in the series on U2OS (setting [1]) stood at 1; with U2OS (setting [10]) it was 0; in the series on U2OS (setting [3]), 1; in the series with U2OS (setting [4]), 1; in the series on U2OS (setting [6]) it was 1; with U2OS (setting [7]) it was 1.

Take `COc1ccc(/C=C/CCCCOc2ccc(C(=O)c3cccc(C(=O)O)c3)cc2CCC(=O)O)cc1`: the “Growth Rate” value with HEK-293T (setting [1]) was 1; with HEK-293T (setting [10]), 0; in the series on HEK-293T (setting [2]), 1; in the series on HEK-293T (setting [4]), 1; in the series with HEK-293T (setting [6]) it was 1; in the series with HEK-293T (setting [7]), 1. Also, the “Growth Rate” value is recorded as 0 in the series with HEK-293T (setting [8]); 0 with Fibroblast (setting [1]); 1 with Fibroblast (setting [2]); 0 in the series with Fibroblast (setting [3]); 0 with Fibroblast (setting [4]); 0 in the series on Fibroblast (setting [6]). In addition, the “Growth Rate” value with Fibroblast (setting [7]) is 0; in the series with U2OS (setting [1]), 0; in the series on U2OS (setting [3]), 0; in the series with U2OS (setting [5]), 0; with U2OS (setting [6]) it was 1; in the series with U2OS (setting [9]), 0. Moreover, the “Growth Rate” value in the series on U2OS (setting [7]) is 1; in the series on U2OS (setting [8]), 0.

For the compound `Cc1cc(C)cc(C(=O)N(C)[C@H](Cc2ccc(-c3ccccc3)cc2)C(=O)N[C@@H](Cc2c[nH]c3ccccc23)C(=O)O)c1`, the “Growth Rate” value in the series with HEK-293T (setting [1]) is listed as 1; with HEK-293T (setting [10]), 0; in the series on HEK-293T (setting [2]) it was 0; in the series on HEK-293T (setting [4]) it was 0; in the series on HEK-293T (setting [6]), 0; in the series with HEK-293T (setting [7]), 0. In addition, the “Growth Rate” value with Fibroblast (setting [1]) was found to be 0; in the series on Fibroblast (setting [3]) it was 0; in the series with Fibroblast (setting [5]) it was 1; in the series on Fibroblast (setting [9]), 1; in the series on Fibroblast (setting [8]) it was 1; with U2OS (setting [10]), 0. The “Growth Rate” value in the series with U2OS (setting [2]) is 0; with U2OS (setting [4]), 0; in the series with U2OS (setting [5]) it was 1; with U2OS (setting [6]), 0; in the series with U2OS (setting [9]) it was 1; in the series on U2OS (setting [7]), 0. Also, in the series with U2OS (setting [8]), the “Growth Rate” value came to 1.
